pIC50: −log10 of the molar value.
Tests used:
[1] = molecular target: T1, binding of TSP-1 protein to CD36, a TSP-1 receptor protein (Homo sapiens, UniProt P07996); assay: ELISA: blocking of CD36 binding to TSP-1 protein
T1 construct: purchased novoprotein (TSP-1); R&D Systems (Fc-tagged CD36) CU45 (TSP-1); 1955-CD-050 (CD36-Fc)
Method: ELISA assay was performed to detect the ability of the polypeptides to block the binding of TSP-1 protein to CD36, a TSP-1 receptor protein. TSP-1 protein (novoprotein, Catalog No. CU45) was diluted to 2 μg/mL using 100 mM carbonate buffer and added to sample wells (100 μL/well) of a 96-well ELISA plate (Thermo, Catalog No. 437111), and incubated overnight at 4° C.; after washing the plate twice using 1×PBST wash solution, 200 μL of 1.5% BSA (Sigma, Catalog No. B2064) was added to each well, and incubated at 37° C. for 2 h; after washing the plate 3 times using 1×PBST wash solution, the analytes were added (100 μL/well, 3 replicate wells; for the control group, 0.25 μg/mL of Fc-tagged CD36 protein (R&D Systems, Catalog No. 1955-CD-050); and for the polypeptide-treated groups, a mixture containing Fc-tagged CD36 protein and polypeptide at final concentrations of 0.25 μg/mL and 100 μM, respectively), and incubated at 37° C. for 3 h. After washing the plate 5 times using 1×PBST wash solution, a 1:500 dilution solution of FITC-labeled anti-Fc-tagged antibody (Beyotime, Catalog No. A0556) was added, and incubated for 1 h at 37° C.; after washing the plate 5 times using 1×PBST wash solution, a multifunctional ELISA instrument (TECAN, model: Infinite 200 Pro) was used to detect the intensity of FITC fluorescence signal in each sample well. The ability of the polypeptides to block CD36 binding to TSP-1 protein (Table 2-1) was assessed by calculating the ratio of the fluorescence signal from the polypeptide-treated groups to that of the control group, allowing for the determination of the blocking rate of the polypeptides in inhibiting CD36 binding to TSP-1 protein, i.e., (fluorescence signal of the control group-fluorescence signal of the polypeptide-treated group)/fluorescence signal of the control group×100%. Based on the blocking rate results obtained at the single concentration and on the polypeptide molecule properties, the preferred polypeptide molecules were assayed for concentration dependence (at 0 μM, 0.5 μM, 1 μM, 5 μM, 10 μM, and 100 μM), and IC50 values of the polypeptides for blocking CD36 binding to TSP-1 protein were determined to further assess the abilities of the preferred polypeptide molecules to block the binding of CD36 to TSP-1 (Table 2-2).

[2] = tested on: TSP-1-dependent TGF-β activation; assay: TSP-1-dependent TGF-β activation in PMA-differentiated THP-1 cells with 293-TGFβ Res reporter cells; assay type: cell-based; conditions: 100 μM polypeptide, 24 h; ratio to negative control group (1.00)
Method: In this Example, the inhibitory effects of the polypeptides on TSP-1-dependent TGF-β activation were detected using a model based on a high TSP-1 expressing cell. In the assay, THP-1 cells (American Typical Culture Collection, ATCC, TIB-20) were induced by phorbol ester (Phorbol 12-myristate 13-acetate, PMA) (Sigma, Catalog No. P1585) and differentiated into macrophage-like cells with distinct macrophage expression profiles.
The experiment was performed as follows: THP-1 cells were inoculated in a 96-well plate, and treated with 300 nM PMA for differentiation and adherence to form macrophage-like cells. 100 μM polypeptide was added (For the negative control group, an equal volume of PBS (the solvent for the polypeptide) was added, while the positive control group received an equal concentration of the polypeptide shown in SEQ ID NO: 50.) The cells were treated for 24 hours, and then a 293 reporter cell strain, 293-TGFβ Res cell strain (novoprotein, Catalog No. XCC03-1), was added for detecting TGF-β activity, and co-cultivated for 24 hours. Bio-Lite Luciferase Assay lysate comprising fluorescent substrate (Vazyme, Catalog No. DD1201-01) was added, and the fluorescent intensity was detected using a multifunctional microplate reader (TECAN, model Infinite 200 Pro). The inhibitory effect of the polypeptide on TGF-β activation was assessed by calculating the ratio of the fluorescence signal from the polypeptide-treated groups to that of the negative control group.

[3] = tested on: mouse lung fibrosis model induced by bleomycin (BLM); assay: Inflammatory and fibrotic pathology (HE, Masson's trichrome) in BLM mouse fibrosis model; assay type: in vivo; parameters: scale not given here
Method: This Example was to assess the inhibitory effect of polypeptides on fibrotic pathology. 6- to 8-week-old male C57/6J mice weighing 18-20 g were used as subjects for the study. The experimental animals were randomized into groups, 6 animals in each group. On the day of modeling (Day 1), a single dose of 0.7 USP/kg of BLM solution was administered via the tracheal route to the BLM group and each peptide-treated group to induce the model. The negative control group received an equal volume of saline. Treatment dosing started on Day 8. Each peptide-treated group received the peptide drug intratracheally at a dosage of 3 mg/kg, while the positive control group received the peptide of SEQ ID NO: 50 at the same dosage, and the administration frequency was twice a week, with a total of 4 administrations. The BLM model group and the negative control group received an equal volume of solvent (saline) as a control. The procedure followed that described in Example 4.
On Day 21, the lung tissues were dissected, washed with saline to remove blood stains, and dried with gauze. Histopathological analysis was then performed on the dissected lung tissues. The lung tissues were perfused with 0.5 mL of paraformaldehyde via the trachea and placed in 4 mL of paraformaldehyde. A small amount of gauze was added to ensure the lung tissues were completely immersed in the fixative solution. The tissues were fixed for more than 24 hours. One lobe of the left lung and four lobes of the right lung were trimmed to the maximum coronal plane, placed in an embedding cassette, dehydrated overnight, and then paraffin-embedded to make 3 μm sections. An autostainer (Leica, model ST5010) was used for Hematoxylin (Herst, lot no. 201905)-Eosin (Chron, lot no.2018070301) (HE) staining, and MASSON'S trichrome (Celestineblue, Chron, lot no. MKCH8129; Aniline blue, Yuanye, lot no. H70J11S115483; Ponceau, Sigma, lot no. SHBM2047) staining. After mounting the sections, they were scanned using a digital panoramic scanner (Zhiyue, model WS-10). For each lung lobe, ≤10 visual fields were captured under a 20× magnification. The severity of inflammation and the severity of fibrosis were assessed using HE staining and Masson's trichrome staining, respectively, to evaluate the inhibitory effects of the polypeptides on inflammatory infiltration and fibrotic deposition at pathological fibrotic sites.

[4] = tested on: P-Smad2/3; assay: P-Smad2/3 content in lung tissue, BLM mouse fibrosis model; assay type: in vivo; conditions: single intratracheal dose 3 mg/kg on Day 7, lung 24 h later; BLM model group = 100.00
Description: This example aimed to evaluate the inhibitory effect of polypeptides on the TGF-β downstream signaling pathway during fibrosis progression. TGF-β intracellular signaling relies on the phosphorylation events of Smad family proteins. The increase in Smad2/3 phosphorylation levels is an important indicator that signal transduction has occurred in the TGF-β signaling pathway.
In this example, 6- to 8-week-old male C57/6J mice weighing 18-20 g were used as subjects for the study. The experimental animals were randomized into groups, eight animals in each group. In this example, intratracheal administration was performed using an aerosol intratracheal metered dosing applicator during both the modeling and drug delivery processes, as described in Example 4. On the day of modeling (Day 1), the experimental animals were randomly assigned to groups and administered a 0.7 USP/kg dose of bleomycin solution (HanHui Pharmaceutical, Batch No. 20080511) via the tracheal route to induce the model. On Day 7, each peptide-treated group received a single intratracheal dose of peptide drug at a dosage of 3 mg/kg, while the BLM model group was given an equal volume of solvent (saline) as a control. Twenty-four hours after drug administration, the animals were dissected, and the lung tissues were collected and frozen in liquid nitrogen for future use. Total protein from the lung tissue was extracted after grinding the tissue in liquid nitrogen, and the total P-Smad2/3 content in the tissue was measured by using P-Smad2/3 ELISA kit (CST, Catalog No. 12001C). The ratio of the P-Smad2/3 content between the peptide-treated group and the model group was calculated to evaluate the effect of the peptide on TGFβ signaling.

[5] = tested on: active TGF-β; assay: Active TGF-β level in lung tissue, bleomycin (BLM) mouse lung fibrosis model; assay type: in vivo; conditions: single intratracheal dose 3 mg/kg on Day 7, lung 24 h later; BLM model group = 100.00
Description: This Example was to evaluate the inhibitory effect of polypeptides on active TGF-β level during the progression of fibrotic disease. In this Example, a mouse lung fibrosis model induced by bleomycin (BLM) was used. The BLM animal model offers advantages, including a close mimicry of the pathological features of the primary disease, ease of use, and good reproducibility. It is the most representative model for studying the mechanisms of fibrosis and is recommended for evaluating drug efficacy.
In this Example, 6 to 8-week-old male C57/6J mice weighing 18-20 g were used as subjects for the study. The experimental animals were randomized into groups, 8 animals in each group, and the expressions of pro-fibrotic factors were detected at the endpoint of the experiment (Day 8) in this model. In this example, an aerosol intratracheal metered dosing applicator (Yuyan, model YAN30012) was utilized for intratracheal administration during the modeling and drug delivery processes. The dosing was performed as follows (An Official American Thoracic Society Workshop Report: Use of Animal Models for the Preclinical Assessment of Potential Therapies for Pulmonary Fibrosis, Am J Respir Cell Mol Biol Vol 56, Iss 5, pp 667-679, May 2017): The experimental animals were anesthetized with aerosolized isoflurane (RWD, lot no. 22041701) using a small animal anesthesia machine (RWD, model R500IE). Animals in the appropriate anesthetic state were positioned supine with heads facing up and bodies tilted on an operating platform (tilted at approximately) 60°, secured by their incisors. The practitioner gently lifted the tongue with tissue forceps in the right hand, pushing it outward and upward to open the animal's lower jaw. Holding the laryngoscope (Yuyan, model SR310-RW) in the left hand, the practitioner slid its anterior leaf-shaped blade along the midline of the tongue into the oral cavity until reaching the glottis, gently pressing the body and root of the tongue upward. The needle of the drug applicator was then inserted through the mouth into the glottis alongside the laryngoscope, and 50 μL of liquid was quickly injected. On the day of modeling (Day 1), the experimental animals were randomly assigned to groups and administered a 0.7 USP/kg dose of bleomycin solution (HanHui Pharmaceutical, Batch No. 20080511) via the tracheal route to induce the model. On Day 7, each peptide-treated group received a single intratracheal dose of 50 μL peptide drug (at a dosage of 3 mg/kg), while the model group was given an equal volume of solvent (saline, Kelong, Batch No. L221062501) as a control. Twenty-four hours after drug administration, the animals were dissected to collect lung tissue, which was ground in liquid nitrogen to extract total protein from the lung tissue. The active TGF-β content in the lung tissue of mice from each group was measured using the TGF-β ELISA kit (BOSTER, catalog number EK0515). The ratio of active TGF-β content between the peptide-treated group and the model group was calculated to evaluate the effect of the peptide on active TGF-β level.

[6] = tested on: human lung adenocarcinoma A549 cells; assay: Transwell tumor cell migration, co-culture with PMA-differentiated THP-1 cells; assay type: cell-based; conditions: 100 μM polypeptide 48 h, co-culture 24 h; negative control group = 100.00
Method: (§1) This Example was to assess the effects of polypeptides on the migration abilities of different tumor cells. The experiment was performed using transwell nested chambers (membrane pore size of 8 μm), where THP-1 cells were inoculated in the lower chamber and treated with 300 nM PMA (Sigma, Catalog No.P1585) for differentiation and chamber-wall adherence, and then treated with 100 μM polypeptide (in the negative control, an equal volume of solvent was added) for 48 hours. The upper chamber was inoculated with tumor cells, human lung adenocarcinoma A549 cells (American Typical Culture Collection, ATCC, CCL-18), and co-cultured for 24 hours; or inoculated with human liver cancer HepG2/C3A cells (ATCC, CRL-10741), and co-cultured for 24 h; or inoculated with human breast cancer MCF7 cells (ATCC, HTB-22), and co-cultured for 48 h. After that, the upper chamber was taken out, fixed with 70% ethanol for 10 min and washed, then stained with Giemsa staining solution (Beyotime, Catalog No.C0131) for 45 min. After washing with double distilled water 2-3 times, unmigrated cells were wiped off the upper layer with a cotton swab. After the chamber was dried, it was observed under a microscope, and five different fields of view under a 100× magnification were randomly selected for counting and statistics. The polypeptides had significant inhibitory effects on the migratory abilities of human lung adenocarcinoma cells, human liver cancer cells, and human breast cancer cells.

[7] = tested on: human liver cancer HepG2/C3A cells; assay: as above; assay type: cell-based; conditions: 100 μM polypeptide 48 h, co-culture 24 h; negative control group = 100.00
Method: as §1

[8] = tested on: human breast cancer MCF7 cells; assay: as above; assay type: cell-based; conditions: 100 μM polypeptide 48 h, co-culture 48 h; negative control group = 100.00
Method: as §1

[9] = 100 μM polypeptide, 0.25 μg/mL Fc-tagged CD36, blocking of CD36 binding to TSP-1

T1 sequence (P07996 19-1170): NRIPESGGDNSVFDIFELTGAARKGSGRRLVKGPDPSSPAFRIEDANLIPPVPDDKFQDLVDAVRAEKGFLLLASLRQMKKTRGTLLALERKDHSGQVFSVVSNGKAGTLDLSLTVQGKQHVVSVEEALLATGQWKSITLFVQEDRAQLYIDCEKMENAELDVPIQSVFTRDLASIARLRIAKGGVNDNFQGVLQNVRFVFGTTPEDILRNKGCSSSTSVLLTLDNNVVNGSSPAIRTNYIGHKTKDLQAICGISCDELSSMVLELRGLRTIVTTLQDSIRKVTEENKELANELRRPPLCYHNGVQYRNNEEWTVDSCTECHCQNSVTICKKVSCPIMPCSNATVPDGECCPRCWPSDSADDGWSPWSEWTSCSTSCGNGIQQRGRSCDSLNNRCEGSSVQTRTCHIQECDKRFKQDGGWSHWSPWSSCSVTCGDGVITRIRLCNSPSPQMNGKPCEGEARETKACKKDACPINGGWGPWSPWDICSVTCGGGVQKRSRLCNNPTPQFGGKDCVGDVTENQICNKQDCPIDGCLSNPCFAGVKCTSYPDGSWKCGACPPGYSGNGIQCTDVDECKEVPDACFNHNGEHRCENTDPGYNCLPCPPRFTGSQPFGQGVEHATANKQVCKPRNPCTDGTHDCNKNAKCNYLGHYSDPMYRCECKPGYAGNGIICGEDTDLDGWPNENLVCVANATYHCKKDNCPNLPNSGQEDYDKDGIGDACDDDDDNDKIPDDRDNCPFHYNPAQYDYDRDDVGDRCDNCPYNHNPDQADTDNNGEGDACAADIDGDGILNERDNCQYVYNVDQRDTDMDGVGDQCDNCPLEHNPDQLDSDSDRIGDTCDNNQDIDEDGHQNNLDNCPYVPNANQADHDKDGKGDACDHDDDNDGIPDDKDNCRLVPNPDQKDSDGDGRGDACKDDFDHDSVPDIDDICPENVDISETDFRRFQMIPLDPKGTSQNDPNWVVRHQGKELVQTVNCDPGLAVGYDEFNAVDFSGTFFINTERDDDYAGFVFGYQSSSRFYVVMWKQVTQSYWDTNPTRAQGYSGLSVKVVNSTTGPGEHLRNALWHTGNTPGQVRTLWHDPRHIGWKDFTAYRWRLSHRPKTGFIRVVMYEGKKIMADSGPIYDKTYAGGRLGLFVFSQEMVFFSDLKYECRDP

Substance	inhibition at 100 µM ([1]; 3 h, 100 μM polypeptide, 0.25 μg/mL Fc-tagged CD36, blocking of CD36 binding to TSP-1, read-out: Blocking rate (Mean, %)) [%]	pIC50 ([1]; concentrations 0-100 μM)	Mean (relative fluorescence intensity) [2]	Inflammatory score Mean ([3]; 3 mg/kg intratracheal twice weekly x4 from Day 8, Day 21, HE staining, BLM model 2.25, negative control 0.36)	Fibrosis score Mean ([3]; 3 mg/kg intratracheal twice weekly x4 from Day 8, Day 21, Masson's trichrome, BLM model 3.25, negative control 1.01)	Blocking rate (Mean, %) [1, 9] [%]	P-Smad2/3 content in lung tissue, ratio to model group, Mean(%) [4] [%]	active TGF-β content in lung tissue, ratio to model group, Mean(%) [5] [%]	A549 migration Mean (%) [6] [%]	HEPG2/C3A migration Mean (%) [7] [%]	MCF7 migration Mean (%) [8] [%]
H-YRVRFLAKENVTQDAEDN-OH [SEQ ID NO: 50, Tyr-Arg-Val-Arg-Phe-Leu-Ala-Lys-Glu-Asn-Val-Thr-Gln-Asp-Ala-Glu-Asp-Asn, reference compound]	23.4	4.97	0.84	1.98	2.81	–	–	–	–	–	–
Ac-Thr-Gln-Asp-Ala-Glu-Asp-NH2 (Ac-TQDAED-NH2) [SEQ ID NO: 04]	–	–	–	–	–	16.89	67.91	74.10	57.90	81.13	62.78
Ac-Gln-Asp-Ala-Glu-Asp-Asn-NH2 (Ac-QDAEDN-NH2) [SEQ ID NO: 05]	–	–	–	–	–	15.07	72.35	74.15	63.92	74.72	42.55

Reference: US20250388623A1, “PEPTIDE INHIBITOR AND USE THEREOF” (CHENGDU BRILLIANT INSPIRATION BIOTHERAPEUTICS CO., LTD, priority 2022, published 2025)
